Peptide text beside a SMILES is read from it. * marks the point of attachment. βNA = c1ccc2cc(N*)ccc2c1; Cbz = O=C(OCc1ccccc1)*
Tests used:
trichomonal hydrolases [1] = assay: Experiment 12: hydrolysis of ZRRR-MNA by trichomonal hydrolases in four buffers; assay type: biochemical, Trichomonas vaginalis; settings: for Score: substrate ZRRR-MNA, Fast Red RL, 0-9 scale
Procedure: Fifty μL of each buffer solution, at pH 2.0, 2.2, 2.4, or 2.6, was pipetted into separate wells of a microtiter plate. Twenty-five μL of 8 mM ZRRR-MNA and 25 μL of 10% trichomonal hydrolase solution were added to each well, and 20 μL were then removed from each well for measurement of final pH. Ten minutes after the mixtures were made, a Dacron swab was inserted into each well to absorb the liquid, then each swab was rubbed on a Fast Red RL film. The intensity of pink color that developed on each swab after five minutes was visually scored in 0.5 unit increments using the 0-9 color scale presented in Table 11.1 of the preceding example.

trichomonal hydrolases [2] = assay: Experiment 13: hydrolysis of peptide substrates by trichomonal hydrolases at low pH, no vaginal fluid; assay type: biochemical, Trichomonas vaginalis; design: key: −: No red color produced; +: Clearly visible red color produced; ++: Moderately intense red color produced; +++: Very intense red color produced; settings: without vaginal fluid; threonine buffer pH 2.4; 2 mM substrate solution; 10 min 25° C.; Fast Garnet
Procedure: Forty μL of each substrate was pipetted into duplicate wells of a microtiter plate. The plate was covered with tape, placed into a 25° C. incubator, and allowed to warm. A diluted enzyme mixture was prepared by mixing one part (v/v) freshly-thawed trichomonal hydrolase solution to nine parts 2 mM L-cysteine solution. Forty μL of this mixture was added to one well of each pair of duplicate wells. For negative controls, 40 μL of 2 mM L-cysteine was added to the second well in each pair of duplicate wells. The plate was returned to the incubator and incubated for ten minutes. Forty μL of SDS/acetate solution was added to each well, followed by 40 μL of Fast Garnet solution. The intensity of color that developed in each well after five minutes was visually scored using the color scale presented in Table 13.1.

[3] = pH 2.0 Buffer after mixing with substrate and trichomonal hydrolase solution
[4] = pH 2.2 Buffer after mixing with substrate and trichomonal hydrolase solution
[5] = pH 2.4 Buffer after mixing with substrate and trichomonal hydrolase solution
[6] = pH 2.6 Buffer after mixing with substrate and trichomonal hydrolase solution

O=C(O)CC(O)C(=O)O (racemic) [DL-malic acid]
Score (trichomonal hydrolases [1]; pH 2.0 Buffer (100 mM)): 4.5
Final pH (trichomonal hydrolases [1]; [3]): pH 2.4
Score (trichomonal hydrolases [1]; pH 2.2 Buffer (100 mM)): 5.5
Final pH (trichomonal hydrolases [1]; [4]): pH 2.7
Score (trichomonal hydrolases [1]; pH 2.4 Buffer (100 mM)): 6.0
Final pH (trichomonal hydrolases [1]; [5]): pH 2.8
Score (trichomonal hydrolases [1]; pH 2.6 Buffer (100 mM)): 6.0
Final pH (trichomonal hydrolases [1]; [6]): pH 2.9

NCC(=O)N[C@@H](Cc1ccccc1)C(=O)Nc1ccc2ccccc2c1 [Gly-Phe-βNA] (H-Gly-Phe-βNA)
Color Score (trichomonal hydrolases [2]): −

COc1cc(NC(=O)[C@@H]2CCCN2C(=O)CN)cc2ccccc12 [Gly-Pro-MNA]
Color Score (trichomonal hydrolases [2]): −

NCC(=O)N[C@@H](Cc1c[nH]c2ccccc12)C(=O)Nc1ccc2ccccc2c1 [Gly-Trp-βNA] (H-Gly-Trp-βNA)
Color Score (trichomonal hydrolases [2]): −

NCC(=O)Nc1ccc2ccccc2c1 [Gly-βNA]
Color Score (trichomonal hydrolases [2]): −

NCC(=O)O [Glycine]
Score (trichomonal hydrolases [1]; pH 2.0 Buffer (100 mM)): 5.0
Final pH (trichomonal hydrolases [1]; [3]): pH 2.4
Score (trichomonal hydrolases [1]; pH 2.2 Buffer (100 mM)): 6.0
Final pH (trichomonal hydrolases [1]; [4]): pH 2.6
Score (trichomonal hydrolases [1]; pH 2.4 Buffer (100 mM)): 6.0
Final pH (trichomonal hydrolases [1]; [5]): pH 2.7
Score (trichomonal hydrolases [1]; pH 2.6 Buffer (100 mM)): 6.0
Final pH (trichomonal hydrolases [1]; [6]): pH 2.9

COc1cc(NC(=O)C(CO)NC(=O)C(N)Cc2cnc[nH]2)cc2ccccc12 (stereo not drawn) [His-Ser-MNA]
Color Score (trichomonal hydrolases [2]): −

N[C@@H](Cc1cnc[nH]1)C(=O)Nc1ccc2ccccc2c1 [His-βNA]
Color Score (trichomonal hydrolases [2]): −

O=C(Nc1ccc2ccccc2c1)[C@@H]1C[C@@H](O)CN1 [Hyp-βNA]
Color Score (trichomonal hydrolases [2]): −

CC[C@H](C)[C@H](N)C(=O)Nc1ccc2ccccc2c1 [Ile-βNA]
Color Score (trichomonal hydrolases [2]): −

NCCCC[C@H](N)C(=O)O [L-lysine]
Score (trichomonal hydrolases [1]; pH 2.0 Buffer (100 mM)): 3.0
Final pH (trichomonal hydrolases [1]; [3]): pH 2.3
Score (trichomonal hydrolases [1]; pH 2.2 Buffer (100 mM)): 4.5
Final pH (trichomonal hydrolases [1]; [4]): pH 2.5
Score (trichomonal hydrolases [1]; pH 2.4 Buffer (100 mM)): 5.0
Final pH (trichomonal hydrolases [1]; [5]): pH 2.9
Score (trichomonal hydrolases [1]; pH 2.6 Buffer (100 mM)): 5.5
Final pH (trichomonal hydrolases [1]; [6]): pH 3.0

C[C@@H](O)[C@H](N)C(=O)O [L-threonine]
Score (trichomonal hydrolases [1]; pH 2.0 Buffer (100 mM)): 3.5
Final pH (trichomonal hydrolases [1]; [3]): pH 2.3
Score (trichomonal hydrolases [1]; pH 2.2 Buffer (100 mM)): 6.0
Final pH (trichomonal hydrolases [1]; [4]): pH 2.4
Score (trichomonal hydrolases [1]; pH 2.4 Buffer (100 mM)): 6.5
Final pH (trichomonal hydrolases [1]; [5]): pH 2.7
Score (trichomonal hydrolases [1]; pH 2.6 Buffer (100 mM)): 6.0
Final pH (trichomonal hydrolases [1]; [6]): pH 2.9

CC(C)C[C@H](N)C(=O)N[C@@H](C)C(=O)Nc1ccc2ccccc2c1 [Leu-Ala-βNA] (H-Leu-Ala-βNA)
Color Score (trichomonal hydrolases [2]): −

COc1cc(NC(=O)C(N)CC(C)C)cc2ccccc12.Cl (stereo not shown) [Leu-MNA]
Color Score (trichomonal hydrolases [2]): −

CC(C)C[C@H](N)C(=O)Nc1ccc2ccccc2c1 [Leu-βNA]
Color Score (trichomonal hydrolases [2]): −

C[C@H](NC(=O)[C@@H](N)CCCCN)C(=O)Nc1ccc2ccccc2c1 [Lys-Ala-βNA] (H-Lys-Ala-βNA)
Color Score (trichomonal hydrolases [2]): −

NCCCC[C@H](N)C(=O)Nc1ccc2ccccc2c1 [Lys-βNA]
Color Score (trichomonal hydrolases [2]): −

N=C(N)NCCC[C@H](NC(=O)[C@@H](N)Cc1ccccc1)C(=O)Nc1ccc2ccccc2c1 [Phe-Arg-βNA] (H-Phe-Arg-βNA)
Color Score (trichomonal hydrolases [2]): −

COc1cc(NC(=O)[C@@H](N)Cc2ccccc2)cc2ccccc12 [Phe-MNA]
Color Score (trichomonal hydrolases [2]): −

N[C@@H](Cc1ccccc1)C(=O)Nc1ccc2ccccc2c1 [Phe-βNA]
Color Score (trichomonal hydrolases [2]): −

COc1cc(NC(=O)C(CCCN=C(N)N)NC(=O)C2CCCN2)cc2ccccc12 (stereo not drawn) [Pro-Arg-MNA]
Color Score (trichomonal hydrolases [2]): −

O=C(Nc1ccc2ccccc2c1)[C@@H]1CCCN1 [Pro-βNA]
Color Score (trichomonal hydrolases [2]): −

CSCC[C@H](NC(=O)[C@@H](N)CO)C(=O)Nc1ccc2ccccc2c1 [Ser-Met-βNA] (H-Ser-Met-βNA)
Color Score (trichomonal hydrolases [2]): −

N[C@@H](CO)C(=O)N[C@@H](Cc1ccc(O)cc1)C(=O)Nc1ccc2ccccc2c1 [Ser-Tyr-βNA] (H-Ser-Tyr-βNA)
Color Score (trichomonal hydrolases [2]): −

N[C@@H](CO)C(=O)Nc1ccc2ccccc2c1 [Ser-βNA]
Color Score (trichomonal hydrolases [2]): −

N[C@@H](Cc1c[nH]c2ccccc12)C(=O)Nc1ccc2ccccc2c1 [Trp-βNA]
Color Score (trichomonal hydrolases [2]): −

CC(C)[C@H](N)C(=O)Nc1ccc2ccccc2c1 [Val-βNA]
Color Score (trichomonal hydrolases [2]): −

CBZ-Val-Leu-Arg-MNA
Color Score (trichomonal hydrolases [2]): +

Cbz-Arg-Arg-βNA
Color Score (trichomonal hydrolases [2]): −

Pro-MNA
Color Score (trichomonal hydrolases [2]): −
